Results published in PMC6826779, “Bis-allylic Deuterated DHA Alleviates Oxidative Stress in Retinal Epithelial Cells” (Antioxidants, 2019).
Like-named read-outs stand apart in the source and are kept apart here.

Legend:
ARPE-19 cells [1] = experiment: cells; format: cell-based; conditions: for concentration range providing improvement in cell viability / concentration at which high toxicity was observed (microscopy, loss of cell adherence): 24 h; for concentration range providing improvement in cell viability: compared to untreated cells (CTL); for concentration at which high toxicity was observed (microscopy, loss of cell adherence): ARPE-19, serum starvation medium (1% FBSM); for cell mortality: ARPE-19, serum starvation, 50 µM; for IC50: Homo sapiens, MTT, read-out: IC50 (concentration leading to 50% of cell viability)
Procedure: ARPE-19 cells were obtained from ATCC, and maintained in Dulbecco’s Modified Eagle’s Medium (DMEM)/Ham F12 (GIBCO) containing 10% (v/v) fetal bovine serum (FBS) and 1% (v/v) penicillin/streptomycin under a humidified (95%)/CO2 (5%) atmosphere at 37 °C. For splitting and experiments, cells were dissociated with 0.25% trypsin-EDTA, re-suspended in the culture medium and then plated at 1–3 × 10^5 cells/mL. Cells were cultured and used up to a maximum of 10 passages.
Cell viability was determined by the MTT colorimetric assay. Cells were incubated for 2 h with MTT reagent (0.5 mg/mL). The absorbance at 570 nm and 655 nm of individual wells was measured using a microplate reader (BioRad 550). The percentage of viable cells was calculated as [(OD570 sample – OD655 sample)/(OD570 control – OD655 control)] × 100%.
ARPE-19 cells were plated into 96-well plates (3 × 10^4 cells/well) and cultured for 24 h to reach confluence before DHA treatment. The cells were treated in medium with 1% FBS (1% FBSM), or with H2O2 prepared in medium with FBS (1%, v/v) to a final concentration of 600 μM. Cells were then treated with DHA, D2-DHA and D4-DHA, at different concentrations (0–80 μm) for 24 h. Control cells were incubated with DMSO (0.2%). After 4 h, cell viability was determined in triplicate using the MTT colorimetric assay. Results were expressed in percentage of viable cells normalized with control conditions in the absence of PUFA and H2O2 stress.
Sigmoidal doses-responses linked to the toxicity were obtained using GraphPad prism software, allowing to calculate IC50 values described as the concentration leading to 50% of cell viability.

ARPE-19 cells [2] = experiment: Lipid peroxidation status with C11-Bodipy581/591 probe (FACS) under oxidative conditions; format: cell-based; conditions: ARPE-19, 50 µM for 24 h
Procedure: ARPE-19 cells were plated into 2 cm^2 wells (2 × 10^5 cells/well) and cultured for 24 h to reach confluence before PUFA or lipophenol treatment. The cell cultures were treated with 1% FBSM containing tested compounds (deuterated DHAs or deuterated lipophenols) at 50 μM for 24 h and then rinsed with media before the incubation of 5 µM C11-Bodipy^581/591 for 30 min. Then, the cells were rinsed and treated with the different stressors, corresponding to different protocols. For chemical stress the cells were incubated with 400 µM of H2O2 during 24 h followed by FACS analysis. For photobleaching stress, the cells were exposed to a white LED lamp with an intensity of 5000 lux at room temperature during 1 h followed by the FACS analysis.
FACS was performed with the BD Accuri C6 Flow Cytometer and BD Accuri C6 Software for data acquisition (BD Biosciences). This flow cytometer is equipped with an excitation laser at 488 nm, and a fluorescence detector FL1 533/30 nm. Data were collected to 10,000 events for each sample using a flow rate of 35 µL/min. Parameters obtained for data analysis included: cell size from the forward scatter (FSC), granularity from the side scatter (SSC) and the green fluorescence of the stained cells with C11-Bodipy^581/591.
First the SSC-A versus FSC-A dot-plot was used to gate the cellular population and remove the cellular debris. Then the SSC-A versus SSC-H dot-plot was used to remove cell doublets in the previous gate to give a final gate. The cellular population in the last gate designed was plotted on count versus log green fluorescence to give the fluorescence mean intensity of FL1. The mean FL1 values were normalized to the cells only stained with C11-Bodipy^581/591.

[3] = ARPE-19, 24 h incubation, H2O2 (600 µM) 4 h
[4] = ARPE-19, serum starvation (1% FBSM), 24 h incubation
[5] = serum starvation (1% FBSM) 24 h
[6] = serum starvation (1% FBSM) 48 h

Structure (SMILES) | concentration range providing improvement in cell viability (ARPE-19 cells [1]; ARPE-19, 1% FBSM) [µM] | concentration at which high toxicity was observed (microscopy, loss of cell adherence) (ARPE-19 cells [1]) [µM] | cell mortality (ARPE-19 cells [1]) | IC50 (ARPE-19 cells [1]; [3]) [µM] | IC50 (ARPE-19 cells [1]; [4]) [µM] | lipid peroxidation status (C11-BODIPY fluorescence) (ARPE-19 cells [2]; [5]) | cell survival (ARPE-19 cells [1]; ARPE-19, 1% FBSM, 70 µM) [%] | lipid peroxidation status (C11-BODIPY fluorescence) (ARPE-19 cells [2]; [6]) | lipid peroxidation status (C11-BODIPY fluorescence) (ARPE-19 cells [2]; then H2O2 400 µM 24 h) | lipid peroxidation status (C11-BODIPY fluorescence) (ARPE-19 cells [2]; then photobleaching (white light, 5000 lux, 1 h))
[2H]C([2H])(/C=C\C/C=C\C/C=C\C/C=C\C/C=C\CC)/C=C\CCC(=O)O [D2-DHA, (6,6-D2)-DHA] | 0 to 65 | 65 to 70 | did not induced cell mortality | 67 ± 1.89 | 69.5 ± 1.46 | decreased lipid peroxidation status with the same efficiency, reaching oxidation levels of untreated cells | – | – | – | –
[2H]C([2H])(C=CCC=CCC=CCC=CCC)C=CC([2H])([2H])C=CCCC(=O)O [D4-DHA, (6,6,9,9-D4)-DHA] | 0 to 70 | 70 to 75 | did not induced cell mortality | 76.2 ± 2.26 | 75.6 ± 1.05 | decreased lipid peroxidation status with the same efficiency, reaching oxidation levels of untreated cells | 125 | reach radical levels close to untreated cells | more effective than D2-DHA | –
CC/C=C\C/C=C\C/C=C\C/C=C\C/C=C\C/C=C\CCC(=O)O [Natural DHA, docosahexaenoic acid, reference compound] | 0 to 60 | 60 to 65 | did not induced cell mortality | 65.5 ± 1.87 | 65.2 ± 1.03 | – | – | increase in lipid peroxidation status compared to untreated cells | increase of oxidation | increase in lipid peroxidation under photobleaching-stress
